Source: patent publication US10933141B2, “Formulations with reduced degradation of polysorbate” (Genentech, Inc., priority 2015, dated 2021)

Experiments:
[1] = biological target: T1, porcine pancreatic lipase (PPL) (Sus scrofa, UniProt P00591); assay: Subvisible particle formation after PPL digestion of PS20 (HIAC); type: physicochemical; conditions: 0.02% PS20; for effect on SVP formation (in words): 15 μg/mL PPL 4.5 hours, then 5° C. overnight, excipient 15% w/v (methionine 10 mg/mL)
T1 construct: purchased Sigma Aldrich Inc. (St. Louis, Mo.)
T1 sequence (P00591 1-450): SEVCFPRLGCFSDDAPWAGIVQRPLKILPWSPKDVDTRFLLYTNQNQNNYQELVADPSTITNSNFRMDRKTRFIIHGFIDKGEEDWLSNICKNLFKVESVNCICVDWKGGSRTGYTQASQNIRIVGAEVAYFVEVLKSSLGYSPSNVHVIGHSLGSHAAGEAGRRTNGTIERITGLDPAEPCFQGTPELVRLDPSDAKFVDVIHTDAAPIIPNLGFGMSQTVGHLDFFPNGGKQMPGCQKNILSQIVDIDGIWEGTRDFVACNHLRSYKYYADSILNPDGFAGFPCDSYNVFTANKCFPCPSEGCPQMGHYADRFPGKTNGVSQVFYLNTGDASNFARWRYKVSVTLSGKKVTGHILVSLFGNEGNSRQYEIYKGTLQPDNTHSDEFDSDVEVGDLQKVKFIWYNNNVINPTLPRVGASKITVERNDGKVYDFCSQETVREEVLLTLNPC
Protocol: Subvisible particles were measured using a HIAC 9703 particle counter equipped with an HRDL-150 detector and a 1 mL syringe. Performance of the instrument was verified with NIST-traceable 2 μm Polystyrene bead standards at 3000 counts/mL before each measurement session. The HIAC instrument was configured to a 10 mL/min flow rate, 0.1 mL tare volume, and 0.4 mL sample volume. The samples were analyzed using 4 runs of 0.4 mL sips, with the first run of each sample was discarded to prevent measurement error due to sample carryover. Results were reported as the average values for 1.4, 2, 5, 10, 15, and 25, 50 μm analysis filter sizes.
Several excipients were tested for their ability to protect PS20 against enzymatic hydrolysis including HP-α-CD, HP-β-CD, HP-γ-CD, SBE-β-CD, PVP, PEG 1500, sucrose, and methionine. Solutions of each excipient in pH 5.5 buffer were prepared containing a final concentration of 0.02% PS20 after enzyme addition. The concentration of HP-α-CD, HP-β-CD, HP-γ-CD, and SBE-β-CD in the excipient solutions was 106 mM. […] The remaining excipients (PVP, PEG 1500, sucrose) were added to 15% w/v to match the % w/v of HP-β-CD. Samples were digested with 15 μg/mL PPL enzyme for 4.5 hours at room temperature, followed by 30 minutes of heat inactivation at 85° C. Each sample was analyzed for PS20 concentration using high performance liquid chromatography with an inline evaporative light scattering detector. Samples were then placed at 5° C. overnight to allow for the formation of particles and were analyzed for visible and subvisible particles as described previously.
The effect of the HP-β-CD concentration at different PS20 concentrations on the enzymatic degradation of PS20 was assessed to identify optimal concentrations for inhibition of enzymatic PS20 degradation. To evaluate the dependence of PS20 degradation on HP-β-CD concentration, the PS20 content was determined using RP-ELSD for triplicate samples containing different HP-β-CD concentrations at various PS20 concentrations. Samples containing 0.005% (FIG. 14A), 0.02% (FIG. 14B), 0.1% (FIG. 14C), and 0.4% PS20 (FIG. 14D) were digested using 15 μg/mL of PPL enzyme for 4.5 hours at room temperature in protein-free samples containing no excipient (control), 0, 0.5, 5, and 15% (w/v) HP-β-CD. PPL was added to each of the treatment solutions at a ratio of 75 […], with an equivalent volume of buffer added to the control solutions to determine the effect of HP-β-CD to polysorbate ratio on enzymatic degradation. Digestion was stopped by heat inactivation in an 85° C. water bath for 30 minutes. Each sample was analyzed for PS20 concentration using high performance liquid chromatography with an inline evaporative light scattering detector as described above. Samples were then placed at 5° C. overnight to allow for the formation of particles and placed on ice during analysis for visible and subvisible particles as described above.

[2] = Oxidative PS20 degradation with AAPH, PS20 by RP-ELSD; type: physicochemical; conditions: 15% (w/v) excipient; 5 mM AAPH at 40° C. for 24 hours; n=3
Protocol: (§1) Polysorbate concentration was determined using reverse phase ultra-performance liquid chromatography using evaporative light scattering detection (RP-ELSD). Samples were analyzed using an Agilent 1100 series high performance liquid chromatography system (HPLC) fitted with a Waters Oasis MAX cartridge column (20×2.1 mm, 30 μm particle size). The HPLC system was set up with a switching valve directing column flow-through to either waste or a Varian 380-LC evaporative light scattering detector set to 100° C. The mobile phases consisted of 2% formic acid in water (Pump A) and 2% formic acid in isopropanol (Pump B). […] In order to quantitate the PS20 concentration, a standard curve was generated by injecting 20 μL of solutions containing between 0% w/v and 0.4% w/v PS20. For excipients which affected the migration time of PS20 through the column, PS20 standard curve solutions containing the relevant excipient were included in the analysis to facilitate accurate quantitation.
The ability of cyclodextrins to inhibit oxidative PS20 degradation was evaluated using 2,2′-Azobisisobutyramidinium (AAPH), which has been shown previously to degrade PS20 (Borisov et al., J. Pharm. Sci. 104:1005-1018 (2015)). […] Polysorbate 20 degradation was determined by RP-ELSD for samples oxidized with 5 mM AAPH at 40° C. for 24 hours containing no excipient (control), 15% (w/v) sucrose, and 15% (w/v) HP-β-CD.

[3] = biological target: T1, porcine pancreatic lipase (PPL); assay: Kinetics of enzymatic PS20 degradation by PPL; type: biochemical; conditions: 15% sucrose; 0.02% (w/v) PS20; 15 μg/mL PPL, about 25° C., 180 hours
Protocol: as §1, with “B). The pump gradient was isocratic at 10% pump B during equilibration, linear to 20% pump B for 1 minute, isocratic at 20% pump B for 2.4 minutes, linear to 100% pump B for 0.1 minutes, isocratic at 100% pump B for 1.1 minutes, linear to 10% pump B for 0.1 minutes, and finally isocratic at 10% pump B for 1.9 minutes.” for “B).”, “quantitation. […]” for “quantitation.”

[4] = PPL 4.5 hours, particles greater than 2, 5, or 10μ

Compound | effect on SVP formation (in words) [1] | decrease in relative percent PS20 [2] [%] | plateau of PS20 degradation curve [3] [%] | HP-β-CD concentration required to completely inhibit sub-visible particle formation [1, 4] [%] | HP-β-CD concentration required to partially inhibit sub-visible particle formation [1, 4] [%]
2-hydroxypropyl-α-cyclodextrin [HP-α-CD] | significant inhibitory effects | – | – | – | –
OC[C@H]1O[C@@](CO)(O[C@H]2O[C@H](CO)[C@@H](O)[C@H](O)[C@H]2O)[C@@H](O)[C@@H]1O [sucrose, reference compound] | – | 9.8 | 44 | – | –
2-hydroxypropyl-β-cyclodextrin [HP-β-CD] | significant inhibitory effects | 3.6 | – | 15 | 0.5
